Source: patent publication US20070128217A1 (priority 2003, published 2007)

Legend:
[1] = test system: rabbit serum obtained by immunizing a rabbit with the SARS-CoV strain Frankfurt 1; type: binding; set-up: Binding of a rabbit serum to linear peptides / Binding of a rabbit serum to looped peptides / Rabbit serum linear peptides / Rabbit serum looped peptides / Binding of a rabbit serum to linear peptides of protein N of SARS-CoV Urbani (Rabbit serum linear peptides) / Binding of a rabbit serum to looped/cyclic peptides of protein N of SARS-CoV Urbani (Rabbit serum looped peptides): unit not given here
[2] = test system: antibodies in sera from SARS patients (sera 1a, 1b, 2, 6, 37, 62, London, SARS-yellow, SARS-green); type: binding, human; set-up: Binding of serum 6 to linear peptides of protein X1 of SARS-CoV Urbani / Binding of serum 37 to linear peptides of protein X1 of SARS-CoV Urbani / Binding of serum 6 to looped/cyclic peptide (PEPSCAN-ELISA) / Binding of serum 37 to looped/cyclic peptide (PEPSCAN-ELISA) / Binding of serum 37 to looped/cyclic peptides of protein X1 of SARS-CoV Urbani / Binding of serum 6 to linear peptides of protein X2 / Binding of serum 37 to linear peptides of protein X2 / Binding of serum 37 to looped/cyclic peptides of protein X2 of SARS-CoV Urbani / Binding of serum 6 to linear peptides of protein M of SARS-CoV Urbani / Binding of serum 37 to linear peptides of protein M of SARS-CoV Urbani / Binding of serum 6 to looped/cyclic peptides of protein M of SARS-CoV Urbani / Binding of serum 37 to looped/cyclic peptides of protein M of SARS-CoV Urbani / Binding of serum 6 to linear peptides of protein X3 of SARS-CoV Urbani / Binding of serum 37 to linear peptides of protein X3 of SARS-CoV Urbani / Binding of serum 37 to looped/cyclic peptides of protein X3 of SARS-CoV Urbani / Binding of serum 6 to linear peptides of protein X4 of SARS-CoV Urbani / Binding of serum 37 to linear peptides of protein X4 of SARS-CoV Urbani / Binding of serum 37 to looped/cyclic peptides of protein X4 of SARS-CoV Urbani / Binding of serum 6 to linear peptides of protein X5 of SARS-CoV Urbani / Binding of serum 37 to linear peptides of protein X5 of SARS-CoV Urbani / Binding of serum 37 to looped/cyclic peptides of protein X5 of SARS-CoV Urbani / Binding of serum 6 to linear peptides of protein N of SARS-CoV Urbani / Binding of serum 37 to linear peptides of protein N of SARS-CoV Urbani / Binding of serum 6 to linear peptide (PEPSCAN-ELISA) / Binding of serum 1a to looped/cyclic peptides of protein N of SARS-CoV Urbani / Binding of serum 1b to looped/cyclic peptides of protein N of SARS-CoV Urbani / Binding of serum 2 to looped/cyclic peptides of protein N of SARS-CoV Urbani / Binding of serum 6 to looped/cyclic peptides of protein N of SARS-CoV Urbani / Binding of serum 37 to looped/cyclic peptides of protein N of SARS-CoV Urbani / Binding of serum 62 to looped/cyclic peptides of protein N of SARS-CoV Urbani / Binding of serum London to looped/cyclic peptides of protein N of SARS-CoV Urbani / Binding of serum SARS-green to looped/cyclic peptides of protein N of SARS-CoV Urbani: unit not given here
[3] = test system: control sera (pooled serum of ten healthy LUMC hospital workers; commercial negative donor pooled serum from the Dutch bloodbank); type: binding, human; set-up: Binding of Control serum LUMC to linear peptides / Binding of Control serum Blood-bank to linear peptides / Binding of Control serum LUMC to looped peptides / Binding of Control Serum Blood-Bank to Looped peptides / Binding of Control serum LUMC to linear peptides of the protein M of SARS-CoV Urbani / Binding of Control serum Blood-bank to linear peptides of the protein M of SARS-CoV Urbani / Binding of Control serum LUMC to looped peptides of the protein M of SARS-CoV Urbani / Binding of Control Serum Blood-Bank to Looped peptides of the protein M of SARS-CoV Urbani: unit not given here

For WLCWKCKSKNPLLYD, the “Binding of a rabbit serum to linear peptides” value [1] was 0.2, the “Binding of a rabbit serum to looped peptides” value [1] was 0.6 and the “Binding of serum 1a to looped/cyclic peptide (PEPSCAN-ELISA)” value [2] was 0.8. For the same sequence, the “Binding of serum 1b to looped/cyclic peptide (PEPSCAN-ELISA)” value [2] was 0.6, the “Binding of serum 2 to looped/cyclic peptide (PEPSCAN-ELISA)” value [2] was 0.6 and the “Binding of serum 6 to looped/cyclic peptide (PEPSCAN-ELISA)” value [2] was 0.6. The “Binding of serum 37 to looped/cyclic peptide (PEPSCAN-ELISA)” value [2] was 0.9, the “Binding of serum 62 to looped/cyclic peptide (PEPSCAN-ELISA)” value [2] was 0.7 and the “Binding of serum London to looped/cyclic peptide (PEPSCAN-ELISA)” value [2] was 0.3. For the same sequence, the “Binding of serum SARS-green to looped/cyclic peptide (PEPSCAN-ELISA)” value [2] was 0.4, the “Binding of serum SARS-yellow to looped/cyclic peptide (PEPSCAN-ELISA)” value [2] was 0.6 and the “Recognition of the peptide by sera of SARS-CoV infected individuals, and form (linear, looped/cyclic) in which it is recognized” value [2] was “recognized in linear form”. For the same sequence, the “Binding of Control Serum Blood-Bank to Looped peptides” value [3] was 0.7, the “Binding of Control serum Blood-bank to linear peptides” value [3] was 0.6 and the “Binding of Control serum LUMC to linear peptides” value [3] was 0.7. The “Binding of Control serum LUMC to looped peptides” value [3] was 0.8.
For TTDTGIENATFFIFN, the “Binding of a rabbit serum to linear peptides” value [1] was 0.1, the “Binding of a rabbit serum to looped peptides” value [1] was 0.5 and the “Binding of serum 1a to linear peptides of protein X1 of SARS-CoV Urbani” value [2] was 0.8. The “Binding of serum 1a to looped/cyclic peptides of protein X1 of SARS-CoV Urbani” value [2] was 0.6, the “Binding of serum 1b to linear peptides of protein X1 of SARS-CoV Urbani” value [2] was 0.5 and the “Binding of serum 1b to looped/cyclic peptides of protein X1 of SARS-CoV Urbani” value [2] was 0.6. For the same sequence, the “Binding of serum 2 to linear peptides of protein X1 of SARS-CoV Urbani” value [2] was 0.6, the “Binding of serum 2 to looped/cyclic peptides of protein X1 of SARS-CoV Urbani” value [2] was 0.7 and the “Binding of serum 6 to linear peptides of protein X1 of SARS-CoV Urbani” value [2] was 0.5. The “Binding of serum 6 to looped/cyclic peptides of protein X1 of SARS-CoV Urbani” value [2] was 0.6, the “Binding of serum 37 to linear peptides of protein X1 of SARS-CoV Urbani” value [2] was 0.6 and the “Binding of serum 37 to looped/cyclic peptides of protein X1 of SARS-CoV Urbani” value [2] was 1.0. For the same sequence, the “Binding of serum 62 to linear peptides of protein X1 of SARS-CoV Urbani” value [2] was 0.5, the “Binding of serum 62 to looped/cyclic peptides of protein X1 of SARS-CoV Urbani” value [2] was 0.9 and the “Binding of serum London to linear peptides of protein X1 of SARS-CoV Urbani” value [2] was 0.3. For the same sequence, the “Binding of serum London to looped/cyclic peptides of protein X1 of SARS-CoV Urbani” value [2] was 0.3, the “Binding of serum SARS-green to linear peptides of protein X1 of SARS-CoV Urbani” value [2] was 0.4 and the “Binding of serum SARS-green to looped/cyclic peptides of protein X1 of SARS-CoV Urbani” value [2] was 0.6. For the same sequence, the “Binding of serum SARS-yellow to linear peptides of protein X1 of SARS-CoV Urbani” value [2] was 0.5, the “Binding of serum SARS-yellow to looped/cyclic peptides of protein X1 of SARS-CoV Urbani” value [2] was 0.5 and the “Binding of Control Serum Blood-Bank to Looped peptides” value [3] was 0.8. For the same sequence, the “Binding of Control serum Blood-bank to linear peptides” value [3] was 0.6, the “Binding of Control serum LUMC to linear peptides” value [3] was 1.0 and the “Binding of Control serum LUMC to looped peptides” value [3] was 0.8.
With LYDANYFVCWHTHNY the “Binding of a rabbit serum to linear peptides” value [1] was 0.1, the “Binding of a rabbit serum to looped peptides” value [1] was 0.5 and the “Binding of serum 1a to linear peptides of protein X1 of SARS-CoV Urbani” value [2] was 0.9. For the same sequence, the “Binding of serum 1a to looped/cyclic peptide (PEPSCAN-ELISA)” value [2] was 0.6, the “Binding of serum 1b to linear peptides of protein X1 of SARS-CoV Urbani” value [2] was 0.8 and the “Binding of serum 1b to looped/cyclic peptide (PEPSCAN-ELISA)” value [2] was 0.5. The “Binding of serum 2 to linear peptides of protein X1 of SARS-CoV Urbani” value [2] was 0.5, the “Binding of serum 2 to looped/cyclic peptide (PEPSCAN-ELISA)” value [2] was 0.4 and the “Binding of serum 6 to linear peptides of protein X1 of SARS-CoV Urbani” value [2] was 0.7. The “Binding of serum 6 to looped/cyclic peptide (PEPSCAN-ELISA)” value [2] was 0.4, the “Binding of serum 37 to linear peptides of protein X1 of SARS-CoV Urbani” value [2] was 0.8 and the “Binding of serum 37 to looped/cyclic peptide (PEPSCAN-ELISA)” value [2] was 0.6. The “Binding of serum 62 to linear peptides of protein X1 of SARS-CoV Urbani” value [2] was 0.8, the “Binding of serum 62 to looped/cyclic peptide (PEPSCAN-ELISA)” value [2] was 0.6 and the “Binding of serum London to linear peptides of protein X1 of SARS-CoV Urbani” value [2] was 0.4. The “Binding of serum London to looped/cyclic peptide (PEPSCAN-ELISA)” value [2] was 0.2, the “Binding of serum SARS-green to linear peptides of protein X1 of SARS-CoV Urbani” value [2] was 0.4 and the “Binding of serum SARS-green to looped/cyclic peptide (PEPSCAN-ELISA)” value [2] was 0.3. For the same sequence, the “Binding of serum SARS-yellow to linear peptides of protein X1 of SARS-CoV Urbani” value [2] was 0.5, the “Binding of serum SARS-yellow to looped/cyclic peptide (PEPSCAN-ELISA)” value [2] was 0.3 and the “Binding of Control Serum Blood-Bank to Looped peptides” value [3] was 0.7. For the same sequence, the “Binding of Control serum Blood-bank to linear peptides” value [3] was 0.8, the “Binding of Control serum LUMC to linear peptides” value [3] was 0.7 and the “Binding of Control serum LUMC to looped peptides” value [3] was 0.5.
